The text below walks through data of US11572590B2, “Methods for evaluating tumor cell spheroids using 3D microfluidic cell culture device” (Dana-Farber Cancer Institute, Inc., priority 2017, dated 2023).

Common to all, as to assay: SelectScreen Kinase Profiling, single point inhibition and IC50 for off-target kinases
What all share (format): biochemical

In assay [1] the target is off-target kinases (Homo sapiens, UniProt O75582). The following applies: RPS6KA5 (MSK1), ZLYTE, ATP Km app.
For assay [2], the target named is off-target kinases (Homo sapiens, UniProt P00519, Q252H). The following applies: ABL1 Q252H, LanthaScreen Binding.
The target of assay [3] is off-target kinases (Homo sapiens, UniProt P05129). The following applies: PRKCG (PKC gamma); Cmpd1 1000 μM; ATP Km app; ZLYTE.
In assay [4] the target is off-target kinases (Homo sapiens, UniProt Q13464). As to conditions: ROCK1, ZLYTE, ATP Km app.
Sequence of off-target kinases (Homo sapiens, UniProt Q13464) (Q13464 whole entry): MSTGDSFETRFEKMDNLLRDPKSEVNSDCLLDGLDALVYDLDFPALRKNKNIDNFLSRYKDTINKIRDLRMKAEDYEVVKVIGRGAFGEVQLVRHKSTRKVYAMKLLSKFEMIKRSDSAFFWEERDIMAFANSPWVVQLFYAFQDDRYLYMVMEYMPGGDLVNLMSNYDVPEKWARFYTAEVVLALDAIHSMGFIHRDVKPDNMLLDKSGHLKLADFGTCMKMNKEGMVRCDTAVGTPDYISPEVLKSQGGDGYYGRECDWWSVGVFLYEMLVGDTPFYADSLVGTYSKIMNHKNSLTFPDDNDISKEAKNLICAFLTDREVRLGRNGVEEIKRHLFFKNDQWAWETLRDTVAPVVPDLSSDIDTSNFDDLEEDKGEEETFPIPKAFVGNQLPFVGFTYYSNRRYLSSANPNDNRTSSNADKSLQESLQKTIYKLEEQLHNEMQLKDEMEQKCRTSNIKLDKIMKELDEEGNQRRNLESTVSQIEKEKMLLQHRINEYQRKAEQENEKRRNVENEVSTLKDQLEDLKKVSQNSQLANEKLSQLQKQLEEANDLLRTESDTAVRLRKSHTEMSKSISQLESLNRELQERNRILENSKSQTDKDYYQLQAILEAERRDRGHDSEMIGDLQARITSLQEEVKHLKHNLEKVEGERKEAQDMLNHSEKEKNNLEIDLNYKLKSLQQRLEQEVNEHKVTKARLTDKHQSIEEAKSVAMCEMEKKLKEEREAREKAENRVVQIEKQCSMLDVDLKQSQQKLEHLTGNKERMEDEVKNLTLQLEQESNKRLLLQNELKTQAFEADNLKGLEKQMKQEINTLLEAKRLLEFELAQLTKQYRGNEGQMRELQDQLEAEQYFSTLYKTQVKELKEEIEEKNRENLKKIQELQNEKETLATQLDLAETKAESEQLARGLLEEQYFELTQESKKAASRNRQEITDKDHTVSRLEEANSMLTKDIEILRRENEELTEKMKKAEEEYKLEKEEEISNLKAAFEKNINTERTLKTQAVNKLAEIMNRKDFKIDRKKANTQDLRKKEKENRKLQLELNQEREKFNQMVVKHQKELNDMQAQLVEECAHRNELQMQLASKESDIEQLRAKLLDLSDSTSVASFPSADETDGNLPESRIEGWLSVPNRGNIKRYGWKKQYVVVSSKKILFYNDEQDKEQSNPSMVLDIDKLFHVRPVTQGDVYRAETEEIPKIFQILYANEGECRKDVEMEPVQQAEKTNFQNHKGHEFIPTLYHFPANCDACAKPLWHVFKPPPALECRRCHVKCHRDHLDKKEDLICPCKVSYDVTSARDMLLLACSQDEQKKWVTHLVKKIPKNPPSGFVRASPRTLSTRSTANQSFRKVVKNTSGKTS
For assay [5], the target named is T1, off-target kinases (Homo sapiens, UniProt Q15139).
T1 sequence (Q15139 1-912): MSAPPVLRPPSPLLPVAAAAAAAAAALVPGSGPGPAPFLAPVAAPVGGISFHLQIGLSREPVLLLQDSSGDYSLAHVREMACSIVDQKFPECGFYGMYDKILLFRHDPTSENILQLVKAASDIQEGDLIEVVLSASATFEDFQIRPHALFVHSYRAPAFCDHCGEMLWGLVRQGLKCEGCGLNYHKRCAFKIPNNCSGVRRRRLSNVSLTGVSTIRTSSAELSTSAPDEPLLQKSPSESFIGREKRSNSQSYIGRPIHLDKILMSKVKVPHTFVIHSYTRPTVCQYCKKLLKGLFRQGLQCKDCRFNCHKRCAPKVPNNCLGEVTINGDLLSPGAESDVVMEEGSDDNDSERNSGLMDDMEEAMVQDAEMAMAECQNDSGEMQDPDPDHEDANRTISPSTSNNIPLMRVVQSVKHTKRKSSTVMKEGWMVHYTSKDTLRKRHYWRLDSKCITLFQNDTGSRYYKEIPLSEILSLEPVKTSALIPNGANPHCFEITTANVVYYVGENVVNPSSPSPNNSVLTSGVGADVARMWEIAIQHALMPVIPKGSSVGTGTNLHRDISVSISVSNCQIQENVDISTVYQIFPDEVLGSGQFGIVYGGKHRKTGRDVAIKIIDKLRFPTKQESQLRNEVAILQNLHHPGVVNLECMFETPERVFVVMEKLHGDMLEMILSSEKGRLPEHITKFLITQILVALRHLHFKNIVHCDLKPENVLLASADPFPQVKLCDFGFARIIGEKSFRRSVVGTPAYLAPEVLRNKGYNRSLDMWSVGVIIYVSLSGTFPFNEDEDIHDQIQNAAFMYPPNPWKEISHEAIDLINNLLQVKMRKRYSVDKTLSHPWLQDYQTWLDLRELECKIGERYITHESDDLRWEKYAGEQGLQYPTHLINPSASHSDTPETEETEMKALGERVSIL
The following applies: PRKD1 (PKC mu), ATP Km app, ZLYTE.

The target in assay [6] is off-target kinases (Homo sapiens, UniProt Q9HC98). The following applies: NEK6, ZLYTE, ATP Km app.
Sequence of off-target kinases (Homo sapiens, UniProt Q9HC98) (Q9HC98 whole entry): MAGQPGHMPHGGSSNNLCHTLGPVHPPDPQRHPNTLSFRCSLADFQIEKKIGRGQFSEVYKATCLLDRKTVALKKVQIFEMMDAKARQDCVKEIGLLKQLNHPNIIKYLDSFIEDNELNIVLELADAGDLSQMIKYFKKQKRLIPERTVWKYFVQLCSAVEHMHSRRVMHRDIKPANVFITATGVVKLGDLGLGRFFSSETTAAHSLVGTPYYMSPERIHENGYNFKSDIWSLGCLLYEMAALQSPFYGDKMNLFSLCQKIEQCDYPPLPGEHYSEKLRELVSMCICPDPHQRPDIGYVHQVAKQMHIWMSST
For assay [7], the target named is off-target kinases (Homo sapiens, UniProt Q9NY57). As to conditions: STK32B (YANK2), LanthaScreen Binding.
Sequence of off-target kinases (Homo sapiens, UniProt Q9NY57) (Q9NY57 whole entry): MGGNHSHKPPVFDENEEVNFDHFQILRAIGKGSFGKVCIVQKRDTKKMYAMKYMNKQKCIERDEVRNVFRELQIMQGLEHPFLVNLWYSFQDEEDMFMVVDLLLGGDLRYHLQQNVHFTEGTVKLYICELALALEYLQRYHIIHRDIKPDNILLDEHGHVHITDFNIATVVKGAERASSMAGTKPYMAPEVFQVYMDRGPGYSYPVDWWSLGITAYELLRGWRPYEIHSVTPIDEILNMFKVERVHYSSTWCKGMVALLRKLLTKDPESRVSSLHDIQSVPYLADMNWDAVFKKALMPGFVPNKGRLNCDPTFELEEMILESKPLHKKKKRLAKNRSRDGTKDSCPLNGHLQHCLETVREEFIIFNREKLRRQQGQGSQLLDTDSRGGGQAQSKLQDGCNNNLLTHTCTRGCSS

The structures appear in SMILES notation. Where two headings read alike, the source gives them in different places.

Sequence of off-target kinases (Homo sapiens, UniProt O75582) (O75582 whole entry): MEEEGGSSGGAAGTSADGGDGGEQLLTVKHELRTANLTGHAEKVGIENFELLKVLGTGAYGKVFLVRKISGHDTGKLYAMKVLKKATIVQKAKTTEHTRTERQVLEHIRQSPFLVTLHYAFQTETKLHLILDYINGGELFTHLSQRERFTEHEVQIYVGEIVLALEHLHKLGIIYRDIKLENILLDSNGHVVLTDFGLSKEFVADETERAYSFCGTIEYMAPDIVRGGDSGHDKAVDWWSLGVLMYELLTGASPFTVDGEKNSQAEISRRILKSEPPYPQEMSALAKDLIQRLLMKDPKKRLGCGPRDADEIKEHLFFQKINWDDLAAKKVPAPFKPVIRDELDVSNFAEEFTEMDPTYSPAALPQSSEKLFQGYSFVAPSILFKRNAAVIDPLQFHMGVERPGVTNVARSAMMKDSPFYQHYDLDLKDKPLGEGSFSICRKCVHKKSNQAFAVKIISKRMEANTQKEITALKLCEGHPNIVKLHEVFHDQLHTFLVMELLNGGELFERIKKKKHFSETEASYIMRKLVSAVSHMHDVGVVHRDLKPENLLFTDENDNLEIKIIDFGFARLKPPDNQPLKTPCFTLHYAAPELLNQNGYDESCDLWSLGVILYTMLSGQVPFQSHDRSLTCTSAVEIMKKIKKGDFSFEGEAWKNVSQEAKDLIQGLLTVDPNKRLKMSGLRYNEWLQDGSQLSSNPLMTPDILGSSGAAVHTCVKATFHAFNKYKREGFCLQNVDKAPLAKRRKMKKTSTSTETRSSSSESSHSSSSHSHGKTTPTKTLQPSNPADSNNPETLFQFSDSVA

As for `N#Cc1cc(-c2ncnc(Nc3ccc(N4CCN(C5COC5)CC4)cc3)n2)ccc1OC1CCOCC1` [Compound 1, 5-(4-((4-(4-(oxetan-3-yl)piperazin-1-yl)phenyl)amino)-1,3,5-triazin-2-yl)-2-((tetrahydro-2H-pyran-4-yl)oxy)benzonitrile], the inhibition (as a rule, the relative decrease from the control value, in per cent) in assay [1] (read-out: % Inhibition 1) amounted to 6%; in assay [1] (read-out: % Inhibition 2), 3%; in assay [1] (read-out: % Inhibition Avg), 4%; in assay [2] (read-out: % Inhibition 1) it was 52%; in assay [2] (read-out: % Inhibition 2) it was 41%; in assay [2] (read-out: % Inhibition Avg), 46%. The inhibition in assay [4] (read-out: % Inhibition 1) amounted to 6%; in assay [4] (read-out: % Inhibition 2) it was 14%; in assay [4] (read-out: % Inhibition Avg), 10%; in assay [5] (read-out: % Inhibition 1), 100%; in assay [5] (read-out: % Inhibition 2), 95%; in assay [5] (read-out: % Inhibition Avg), 98%. Besides, the inhibition in assay [6] (read-out: % Inhibition 1) worked out at 12%; in assay [6] (read-out: % Inhibition 2), 6%; in assay [6] (read-out: % Inhibition Avg), 9%; in assay [7] (read-out: % Inhibition 1) it was 1%; in assay [7] (read-out: % Inhibition 2), 8%; in assay [7] (read-out: % Inhibition Avg), 5%. Further, the “% Inhibition 1” value in assay [3] was −9%. Besides, the “% Inhibition 2” value in assay [3] was −1%. In assay [3], the “% Inhibition Avg” value was −5%.
